AC50, EC50 and IC50 data for eight compounds are collected here from ChEMBL document CHEMBL1201862, “PubChem BioAssay data set” (2004).

Active and inactive are the calls of the source.

One test relates to HeLa. Kind of test: viability loss in HeLa cells – cell-based, ATP luminescence, cherry-pick samples, cytotoxicity control, dose response (AID 687004). The format is functional. To be noted: Homo sapiens.
Test [1] can be described thus: HeLa cell viability loss – 24 h, dry powder, set 2, cytotoxicity control, dose response (AID 651774). The format is functional, cell-based.
The target in the next test is Caspase-7 (Homo sapiens, UniProt P55210). Briefly: caspase-7 enzyme inhibition, selectivity check – biochemical, DEVD-R110 fluorescence, cherry-pick, selectivity assay for caspase-6 inhibitor project, dose response (AID 743295). The format is functional.
Test [2] concerns the target T1, Caspase-6 (Homo sapiens, UniProt P55212).
T1 sequence (P55212 whole entry): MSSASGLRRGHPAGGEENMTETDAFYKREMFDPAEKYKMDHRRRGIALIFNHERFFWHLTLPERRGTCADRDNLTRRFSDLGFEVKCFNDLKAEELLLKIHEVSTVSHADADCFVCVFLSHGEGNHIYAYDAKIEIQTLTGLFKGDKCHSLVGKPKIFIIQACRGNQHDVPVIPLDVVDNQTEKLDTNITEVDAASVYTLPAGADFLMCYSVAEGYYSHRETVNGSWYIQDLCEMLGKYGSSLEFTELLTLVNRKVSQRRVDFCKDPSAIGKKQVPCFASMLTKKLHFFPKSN
Briefly: inhibition of CASP6 peptide cleavage – biochemical, VEID-R110 fluorescence, cherry-pick, dose response (AID 720632).

Test [3] can be described thus: Luminescence Cell-Based Dose Response HTS to Identify Activators of Luciferase Translation or Activity in H4 […] Cells. [Related pubchem assays: 1829 (Project Summary), 1814 (Primary HTS)]. The format is functional.
The test system of the next test is INS1. Briefly: INS-1E survival protection against cytokine death – cell-based, luminescence, retest, dose response (AID 449756).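 Note: cell death triggered by IL-1 beta plus TNF-alpha plus IFN-gamma mixture; protective hits raise ATP signal compared with cytokine alone wells.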 The format is functional. To be noted: Rattus norvegicus.
The target of test [4] is T1, Caspase-6. Kind of test: inhibition of CASP6 peptide cleavage – biochemical, VEID-R110 fluorescence, dry powder retest, dose response (AID 743332).
For another test, the system named is H4. Briefly: Luminescence Cell-Based Dose Response HTS to Identify Activators of 5'UTR Stem-Loop Driven Prion Protein mRNA Translation in H4 Neuroglioblastoma Cells. [Related pubchem assays: 1829 (Project Summary), 1814 (Primary HTS)]. The format is functional. The following applies: Homo sapiens.
Test [5] in a line: Luminescence Cell-Based Dose Response to Identify Activators of 5'UTR Stem-Loop Driven Prion Protein mRNA Translation in H4-C Neuroglioblastoma Cells. [Related pubchem assays: 1829 (Project Summary), 1814 (Primary HTS)]. The format is functional.
The nature of test [6]: Luminescence Cell-Based Dose Response to Identify Activators of Luciferase Translation or Activity in H4-C Neuroglioblastoma Cells. [Related pubchem assays: 1829 (Project Summary), 1814 (Primary HTS)]. The format is functional.
Test [7] is described as follows: Luminescence Cell-Based Dose Confirmation to Identify Activators of 5'UTR Stem-Loop Driven Alpha-Synuclein mRNA Translation in H4 Neuroglioblastoma Cells. [Related pubchem assays: 1829 (Project Summary), 1814 (Primary HTS)]. The format is functional.
Test [8] in a line: HGIII-sPLA2 enzyme inhibition potency – biochemical, QFRET, IC50, dose response (AID 743457).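 Note: green fluorescence rise as the enzyme cleaves BODIPY PC-A2 in liposomes.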
For the next test, the system named is Streptococcus. Kind of test: GAS UMAA2166 growth inhibition – luminescence, BacTiterGlo, counter-screen for streptokinase expression inhibitor project, dose response (AID 1915).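 Note: potency for reduction of bacterial viability or growth.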 The format is functional, organism-based.
Test [9] deals with T2, Short transient receptor potential channel 4 (Mus musculus, UniProt Q9QUQ5).
T2 sequence (Q9QUQ5 whole entry): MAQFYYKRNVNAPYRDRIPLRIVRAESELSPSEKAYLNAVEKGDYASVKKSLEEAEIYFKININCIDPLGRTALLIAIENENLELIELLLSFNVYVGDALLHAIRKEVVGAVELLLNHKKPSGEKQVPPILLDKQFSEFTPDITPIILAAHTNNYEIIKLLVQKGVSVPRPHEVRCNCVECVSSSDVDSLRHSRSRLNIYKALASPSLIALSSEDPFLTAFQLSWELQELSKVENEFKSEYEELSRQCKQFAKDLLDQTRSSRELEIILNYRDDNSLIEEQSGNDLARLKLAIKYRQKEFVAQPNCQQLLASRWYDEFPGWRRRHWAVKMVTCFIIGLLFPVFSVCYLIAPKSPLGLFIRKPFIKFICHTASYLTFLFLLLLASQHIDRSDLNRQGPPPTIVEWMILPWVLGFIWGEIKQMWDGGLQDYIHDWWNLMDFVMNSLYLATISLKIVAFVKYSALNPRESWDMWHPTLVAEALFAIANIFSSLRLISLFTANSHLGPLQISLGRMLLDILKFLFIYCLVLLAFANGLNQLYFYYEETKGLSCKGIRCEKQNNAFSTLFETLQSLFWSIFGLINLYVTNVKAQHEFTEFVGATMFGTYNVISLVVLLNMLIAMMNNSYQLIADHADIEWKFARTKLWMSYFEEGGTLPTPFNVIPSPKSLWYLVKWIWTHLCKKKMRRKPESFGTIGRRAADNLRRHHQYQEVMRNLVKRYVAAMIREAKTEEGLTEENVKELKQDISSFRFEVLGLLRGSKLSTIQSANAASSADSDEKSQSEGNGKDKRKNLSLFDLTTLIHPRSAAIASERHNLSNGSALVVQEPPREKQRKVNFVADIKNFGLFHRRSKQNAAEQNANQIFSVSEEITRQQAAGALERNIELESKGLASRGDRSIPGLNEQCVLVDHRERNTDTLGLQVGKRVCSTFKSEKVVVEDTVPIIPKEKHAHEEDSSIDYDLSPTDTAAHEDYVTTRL
Briefly: calcium entry via TRPC4 opening agents – cell-based, HEK293 TRPC4/mu-opioid, Fluo-4 calcium, dose response (AID 434937). The format is functional.

Test [10] relates to Streptococcus sp. 'group A'. Kind of test: Streptococcus pyogenes SK(-)GAS viability under kanamycin – luminescence, BacTiterGlo, confirmation, counter-screen for streptokinase expression inhibitor project, dose response (AID 1900). The format is functional, organism-based.
The subject of another test is CHO. Briefly: CHO cell viability loss, potency – luminescence, cytotoxicity control for TLR9-MyD88 binding inhibitor project, dose response (AID 588339).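 Note: CHO cells stably coexpressing TLR9 and MyD88 fusions from primary screen; compound exposure lasted 48 hours before viability readout.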 The format is functional, cell-based, hamster. To be noted: Cricetulus griseus.
Another test addresses NS3 (Hepatitis C virus, UniProt A3EZJ3). Briefly: NS3h DNA-binding inhibition IC50 – biochemical, fluorescence polarization, ChemBridge library, dose response (AID 743264).
Another test deals with Beta Lactamase (Pseudomonas aeruginosa, UniProt Q932Y6). Kind of test: BLA reporter interference, concentration series – BLA reporter cells, FRET fluorescence, artefact control for TLR9-MyD88 binding inhibitor project, dose response (AID 588341).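 Note: cell based assay in CHO-K1 cells stably expressing beta-lactamase.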 The format is cell-based.
The target of test [11] is T3, Rac GTPase-activating protein 1 (Homo sapiens, UniProt Q9H0H5).
T3 sequence (Q9H0H5 whole entry): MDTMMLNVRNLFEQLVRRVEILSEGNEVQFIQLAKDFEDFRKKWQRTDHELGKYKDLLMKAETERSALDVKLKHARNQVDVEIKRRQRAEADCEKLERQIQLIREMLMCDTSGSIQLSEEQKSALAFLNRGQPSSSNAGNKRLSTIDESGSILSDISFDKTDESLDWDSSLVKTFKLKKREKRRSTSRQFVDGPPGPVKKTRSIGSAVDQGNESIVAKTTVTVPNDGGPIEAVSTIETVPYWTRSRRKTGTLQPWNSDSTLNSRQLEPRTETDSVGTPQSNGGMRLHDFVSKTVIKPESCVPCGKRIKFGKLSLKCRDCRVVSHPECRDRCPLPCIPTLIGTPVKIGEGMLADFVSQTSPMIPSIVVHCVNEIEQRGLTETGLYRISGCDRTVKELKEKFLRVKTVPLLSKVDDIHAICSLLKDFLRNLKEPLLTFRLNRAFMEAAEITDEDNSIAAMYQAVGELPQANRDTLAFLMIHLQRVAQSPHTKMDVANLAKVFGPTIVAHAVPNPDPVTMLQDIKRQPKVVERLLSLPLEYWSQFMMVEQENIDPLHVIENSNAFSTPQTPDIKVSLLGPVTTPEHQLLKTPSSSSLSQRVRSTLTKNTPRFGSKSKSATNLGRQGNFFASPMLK
Briefly: blockers of MgcRacGAP-driven Rac1 GTP hydrolysis – biochemical, ADP Hunter fluorescence, primary and confirmatory, confirmation (AID 624330). The format is functional.

For test [12], the target named is Dual specificity tyrosine-phosphorylation-regulated kinase 1A (Rattus norvegicus, UniProt Q63470). The format is biochemical, Homo sapiens.
Test [13] can be described thus: viability loss in HepG2 hepatoma cells – cell-based, ATP luminescence, cherry-pick, activator set 2, cytotoxicity control, dose response (AID 1053143). The format is functional.
In a further test the test system is Escherichia coli. Kind of test: microbe, parasite or virus in culture.
The target of test [14] is Luciferin 4-monooxygenase (Photinus pyralis, UniProt P08659). Briefly: Counter Screen for Luciferase-based Assay Positives. [Related pubchem assays: 620, 618, 411 ]. Background: Counterscreens check selectivity or assay interference.
The next test relates to HT-1080. Briefly: HT1080 cell viability loss – fluorescence readout (AID 620). The following applies: Homo sapiens. The format is functional, cell-based.
Test [15] deals with Protein disulfide-isomerase (Homo sapiens, UniProt P07237). Kind of test: inhibition of PDI-mediated insulin reduction – biochemical, turbidity, dry powder samples, set 2, confirmation (AID 652146).
Test [16] in a line: alpha-synuclein stem-loop luciferase translation blockers – H4 neuroglioma cells, luminescence, confirmation (AID 1988). The format is functional, cell-based.
The nature of test [17]: luciferase reporter signal suppression in cells – H4 neuroglioma cells, luminescence, dose response (AID 1990). The format is functional, cell-based.
Test [18] is described as follows: Counterscreen for antagonists of the human trace amine associated receptor 1 (hTAAR1): Fluorescence-based cell-based high throughput dose response assay to identify nonselective Ga16 antagonists. The format is functional.
Test [19] in a line: Luminescence Cell-Based Dose Response HTS to Identify Inhibitors of 5'UTR Stem-Loop Driven Prion Protein mRNA Translation in H4 Neuroglioblastoma Cells. [Related pubchem assays: 1827 (Project Summary), 1813 (Primary HTS)]. The format is functional.
The target in test [20] is T4, Trace amine-associated receptor 1 (Homo sapiens, UniProt Q96RJ0).
T4 sequence (Q96RJ0 whole entry): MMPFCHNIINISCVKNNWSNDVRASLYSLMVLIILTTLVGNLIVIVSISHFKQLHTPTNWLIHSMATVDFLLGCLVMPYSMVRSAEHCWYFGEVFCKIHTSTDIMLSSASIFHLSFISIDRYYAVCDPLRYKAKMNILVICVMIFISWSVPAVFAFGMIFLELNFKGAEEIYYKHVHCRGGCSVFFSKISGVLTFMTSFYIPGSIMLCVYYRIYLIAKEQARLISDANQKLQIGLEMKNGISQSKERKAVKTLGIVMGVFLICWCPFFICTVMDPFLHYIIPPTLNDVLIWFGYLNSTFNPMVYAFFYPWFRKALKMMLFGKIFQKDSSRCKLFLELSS
Briefly: Fluorescence-based cell-based high throughput dose response assay to identify antagonists of the human trace amine associated receptor 1 (TAAR1). The format is functional.

Test [21] addresses T4, Trace amine-associated receptor 1. Briefly: Counterscreen for antagonists of the human trace amine associated receptor 1 (hTAAR1): Fluorescence-based cell-based high throughput dose response assay to identify TAAR1 Agonists. The format is functional.
The nature of test [22]: Counterscreen for […] of the human trace amine associated receptor 1 (TAAR1): Fluorescence-based cell-based high throughput dose response assay to identify nonselective Ga16 agonists. The format is functional.

Chain of NS3 (A3EZJ3 whole entry): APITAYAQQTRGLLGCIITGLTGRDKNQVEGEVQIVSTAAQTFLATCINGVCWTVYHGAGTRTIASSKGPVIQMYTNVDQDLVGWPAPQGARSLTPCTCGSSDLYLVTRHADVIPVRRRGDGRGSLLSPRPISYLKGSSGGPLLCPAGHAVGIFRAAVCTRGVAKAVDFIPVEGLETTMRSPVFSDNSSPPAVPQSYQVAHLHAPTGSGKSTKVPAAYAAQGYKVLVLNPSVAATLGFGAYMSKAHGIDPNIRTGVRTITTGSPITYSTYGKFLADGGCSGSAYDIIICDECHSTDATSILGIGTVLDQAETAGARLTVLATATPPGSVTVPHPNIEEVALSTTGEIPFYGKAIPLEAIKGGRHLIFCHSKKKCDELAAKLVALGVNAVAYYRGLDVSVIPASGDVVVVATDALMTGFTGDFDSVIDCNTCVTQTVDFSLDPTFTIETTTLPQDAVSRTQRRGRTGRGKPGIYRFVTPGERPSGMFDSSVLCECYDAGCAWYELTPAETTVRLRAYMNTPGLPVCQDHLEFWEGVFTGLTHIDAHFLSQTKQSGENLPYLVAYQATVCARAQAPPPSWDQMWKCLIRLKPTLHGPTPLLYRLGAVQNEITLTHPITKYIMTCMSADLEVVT
Chain of Beta Lactamase (Q932Y6 whole entry): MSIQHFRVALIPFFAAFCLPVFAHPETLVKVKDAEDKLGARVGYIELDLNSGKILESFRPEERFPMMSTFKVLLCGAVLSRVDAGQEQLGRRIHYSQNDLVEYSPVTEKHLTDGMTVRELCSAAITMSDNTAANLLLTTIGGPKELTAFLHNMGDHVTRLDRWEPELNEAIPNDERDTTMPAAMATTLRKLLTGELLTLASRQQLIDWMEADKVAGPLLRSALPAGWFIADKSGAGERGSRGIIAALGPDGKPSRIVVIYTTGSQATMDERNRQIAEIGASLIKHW
Chain of Luciferin 4-monooxygenase (P08659 whole entry): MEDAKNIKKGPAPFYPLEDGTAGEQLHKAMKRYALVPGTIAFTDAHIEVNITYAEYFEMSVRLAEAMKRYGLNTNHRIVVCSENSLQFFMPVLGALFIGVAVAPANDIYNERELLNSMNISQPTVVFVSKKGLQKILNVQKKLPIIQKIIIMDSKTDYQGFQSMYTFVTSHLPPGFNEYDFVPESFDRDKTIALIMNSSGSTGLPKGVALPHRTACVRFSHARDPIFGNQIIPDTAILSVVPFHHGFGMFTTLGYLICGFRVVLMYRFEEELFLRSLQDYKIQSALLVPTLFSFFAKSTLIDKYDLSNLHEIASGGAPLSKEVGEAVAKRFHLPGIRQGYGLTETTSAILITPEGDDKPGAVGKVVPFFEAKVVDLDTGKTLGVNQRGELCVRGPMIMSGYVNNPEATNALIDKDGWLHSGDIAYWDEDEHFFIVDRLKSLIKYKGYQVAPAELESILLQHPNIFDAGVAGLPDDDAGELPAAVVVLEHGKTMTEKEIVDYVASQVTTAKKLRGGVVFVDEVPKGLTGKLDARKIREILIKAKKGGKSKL
Chain of Protein disulfide-isomerase (P07237 whole entry): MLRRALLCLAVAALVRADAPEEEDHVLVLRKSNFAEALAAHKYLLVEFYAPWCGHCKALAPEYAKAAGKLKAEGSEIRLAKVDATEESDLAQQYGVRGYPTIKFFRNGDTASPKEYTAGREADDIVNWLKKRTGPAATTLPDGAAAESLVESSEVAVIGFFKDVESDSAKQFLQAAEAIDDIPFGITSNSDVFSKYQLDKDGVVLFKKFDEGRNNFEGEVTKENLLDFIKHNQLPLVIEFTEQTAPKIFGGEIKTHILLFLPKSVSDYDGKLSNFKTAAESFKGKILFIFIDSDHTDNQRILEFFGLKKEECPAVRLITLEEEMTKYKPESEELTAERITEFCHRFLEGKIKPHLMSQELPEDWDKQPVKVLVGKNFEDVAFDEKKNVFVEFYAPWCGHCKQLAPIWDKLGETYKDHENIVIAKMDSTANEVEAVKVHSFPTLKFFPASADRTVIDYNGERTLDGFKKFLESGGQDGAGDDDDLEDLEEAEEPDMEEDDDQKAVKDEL
Chain of Caspase-7 (P55210 24-198 limits assumed): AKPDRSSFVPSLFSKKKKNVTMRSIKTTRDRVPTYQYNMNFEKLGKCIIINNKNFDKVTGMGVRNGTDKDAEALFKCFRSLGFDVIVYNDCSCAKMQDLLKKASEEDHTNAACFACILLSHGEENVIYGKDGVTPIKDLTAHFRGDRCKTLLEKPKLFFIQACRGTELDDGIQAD
Chain of Caspase-7 (P55210 207-303 limits assumed): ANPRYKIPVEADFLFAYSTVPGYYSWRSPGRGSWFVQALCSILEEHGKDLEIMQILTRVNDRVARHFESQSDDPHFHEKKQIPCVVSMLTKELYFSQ

Regarding `COc1ccc(C(=O)NC(=S)Nc2ccccc2N2CCOCC2)cc1[N+](=O)[O-]`, the AC50 (as a rule, the midpoint of the concentration-response curve, whichever way the signal moves) in the test on HeLa was > 52 µM (inactive).
Turning to `CCn1nnnc1NC(=O)c1ccc(N2CCCC2)cc1`, the concentration at half-maximal activity (AC50) in test [1] is 19.7 µM (active).
`[O-][n+]1onc2c1CCc1c-2nn(-c2ccccc2Cl)[n+]1[O-]`: the AC50 was > 70 µM (inactive) at Caspase-7, 0.651 µM (active) at Caspase-6 [2], 6.94 µM (active) in the test on INS1 and 4.66 µM (active) on Caspase-6 [4]. Further, the EC50 (in general, the concentration giving half of the maximal effect) in test [3] is < 0.1 µM (inconclusive); with H4 it was > 120 µM (not active); in test [5], > 12 µM (not active); in [6], 1.41 µM (active); in test [7], 0.766 µM (active).
For the compound `Cc1onc(-c2ccccc2)c1C(=O)NNC(=S)NC(=O)c1ccc2c(c1)OCO2`, the IC50 – broadly, the point on the concentration scale where inhibition reaches its midpoint – in test [8] was 56.6 µM (inactive). The 50% effective concentration (EC50) in the test with Streptococcus was 4.64 µM (active); in test [9], 4.22 µM (active); in [10], 0.978 µM (active).
As to `O=C1C=CC(=O)N1c1ccccc1N1C(=O)C=CC1=O`, the IC50 with CHO was 2.55 µM (active); on NS3, 34.9 µM (inactive); on Beta Lactamase, 13.6 µM (inactive); in test [11], 62.2 µM (active).
Turning to `Nc1ccc(C(=O)Nc2nc3ccccc3s2)cc1`, the figures for the AC50 (in [12]; in test [13]; with Escherichia coli) were 4.15 µM (active), 26 µM (active) and 47.5 µM (active), respectively. Besides, the results for the EC50 (in test [14]; with HT-1080) were 0.32 µM (active) and > 50 µM (not active), respectively.
Regarding `CCOC(=O)C1(CCOc2ccccc2)CCN(C(=O)c2ccc(O)c(Cl)c2)CC1`, the AC50 in test [15] is 3 µM (active).
Turning to `Cc1ccccc1N(C(=O)c1snc(C(N)=O)c1N)C(C(=O)NC1CCCCC1)c1ccc(O)cc1` (configuration not stated), the half-maximal effective concentration (EC50) was 77.7 µM (active) in test [16]; 12.8 µM (active) in test [17]; > 120 µM (not active) in test [19]; > 29.9 µM (inactive) in test [21]; > 29.9 µM (inactive) in test [22]. Further, the IC50 in [18] is > 29.9 µM (inactive); in test [20], 3.16 µM (active).
